Results as given in article PMC6143625, “A high throughput screen for next-generation leads targeting malaria parasite transmission” (Nature Communications, 2018).
Like-named read-outs stand apart in the source and are kept apart here.

Legend:
[1] = test system: P. falciparum stage V male gametocytes (male gamete formation); assay: P. falciparum dual gamete formation assay (Pf DGFA), male readout (exflagellation), 48 h carry-over format; assay type: cell-based, Plasmodium falciparum NF54; details: for IC50 / inhibition at 2 µM: Plasmodium falciparum; for activity in the Pf DGFA: freshly resynthesized compound; for inhibition at 2 µM: primary screen, single replicate
[2] = test system: P. falciparum stage V female gametocytes (female gamete formation); assay: P. falciparum dual gamete formation assay (Pf DGFA), female readout (Pfs25 expression), 48 h carry-over format; assay type: cell-based, Plasmodium falciparum NF54; details: Plasmodium falciparum; for inhibition at 2 µM: primary screen, single replicate
HepG2 cells = assay: HepG2 toxicity (CellTiter-Glo, parallel to liver stage assay); assay type: cell-based, human
Experimental: Compound inhibition of P. berghei sporozoite liver infection was assessed in a high-throughput luciferase assay. 1536-well plates (789173-F, Greiner Bio-One) were pre-seeded with 5 µl HepG2-A16-CD81^EGFP cells grown in DMEM (11965–092, Invitrogen) containing 10% FBS (35–011-CV, Corning) and 1× Pen Strep Glutamine (10378–016, Invitrogen). Then, 50 nl of compound in DMSO was dispensed in 12-point serial dilution dose-response format (50 µM to 2.82 × 10^−4 µM), and incubated overnight.A. stephensi mosquitoes infected with P. berghei-ANKA-GFP-Luc-SMCON (Pb-Luc)[41] sporozoites bearing the antifolate-resistance-conferring Toxoplasma gondii dihydrofolate reductase-thymidylate synthase selectable marker, pyR2. After dissection, ~1000 sporozoites in 5 µl screening media (DMEM, 11965–092, Invitrogen; 5% FBS, 35–011-CV, Corning; 5x Pen Strep Glutamine, 10378–016, Invitrogen) were added per well and incubated for 48 h (37 °C, 5% CO2). Bioluminescence was measured using an EnVision microplate reader (Perkin Elmer), following the addition of 2 µl per well of Bright-Glo™ (Promega). Compound toxicity against HepG2 cells was determined in parallel by measuring cellular ATP levels reported by luciferase activity. Methods were similar to the P. berghei liver stage assay, except for the addition of CellTiter-Glo® (Promega) as a detection reagent. DMSO (0.5%) was used as a negative control in both assays, with Atovaquone (5 µM) and Puromycin (10 µM) acting as positive controls in the P. berghei and toxicity assays, respectively.

[3] = BPCA vs GHCDL stock of DDD599, adjusted for correct molecular weight, read-out: Pf DGFA male IC50
[4] = SAR, Fig. 6 and Fig. 7, read-out: Male IC50
[5] = BPCA vs GHCDL stock of DDD599, adjusted for correct molecular weight, read-out: Pf DGFA female IC50
[6] = 24h preincubation/carry-over, read-out: Pf DGFA Female IC50
[7] = 48 h, dose response retest of primary hits, 48 h incubation, read-out: Male IC50
[8] = 48h preincubation/carry-over, read-out: Pf DGFA Male IC50
[9] = 48 h, dose response retest of primary hits, 48 h incubation, read-out: Female IC50
[10] = 48h preincubation/carry-over, read-out: Pf DGFA Female IC50
[11] = SAR, Fig. 7, read-out: Female IC50

Row | Compound | Human HepG2 assay TOX50 (HepG2 cells; human, 48 h) [µM] | IC50 [2, 6] [µM] | IC50 [1, 7] [µM] | IC50 [1, 8] [µM] | inhibition at 2 µM ([1]; 48 h incubation) [%] | IC50 [2, 9] [µM] | IC50 [2, 10] [µM] | inhibition at 2 µM ([2]; 48 h incubation) [%] | other results
1 | O=C(CCl)Nc1ccc(Br)cc1 [BPCA, N-(4-bromophenyl)-2-chloroacetamide] | – | – | – | – | – | – | – | – | IC50 [1, 3]: 1.46 µM; IC50 [1, 4]: 1.42 µM; Selectivity ([1]; parasite selectivity compared to Tox50 in HepG2 cells): 17; IC50 [2, 5]: 11 µM
2 | CC(=O)c1c(C)nn(CC(=O)Nc2ccc(Br)cc2)c1C [DDD01027599] | 25.00 | > 12.5 | – | – | – | – | – | – | IC50 [1, 3]: 1.38 µM; IC50 ([1]; compound resynthesised at GSK, read-out: IC50 against male gametocytes): > 50 µM; activity in the Pf DGFA [1]: inactive; IC50 [2, 5]: 3.43 µM; IC50 ([2]; compound resynthesised at GSK, read-out: IC50 against female gametocytes): > 50 µM
3 | O=S(=O)(NCC1(O)CCOc2ccccc21)c1ccccc1F (stereo not drawn) [DDD01028073] | >50.0 | > 12.5 | 0.29 | 0.24 | 95 | > 10 | > 12.5 | < 30 | IC50 [1, 4]: 0.34 µM; IC50 [2, 11]: > 12.5 µM
4 | Cc1ccc(S(=O)(=O)NCC2(O)CCOc3ccccc32)s1 (stereo not drawn) [DDD01028074] | >50.0 | > 12.5 | 0.22 | 0.49 | 101 | > 10 | > 12.5 | < 30 | IC50 [1, 4]: 0.61 µM; IC50 [2, 11]: > 12.5 µM
5 | O=S(=O)(NCC1(O)CCOc2ccccc21)c1ccc(Cl)s1 (stereo not drawn) [DDD01028075] | >50.0 | > 12.5 | 0.45 | 1.48 | 53.1 | > 10 | > 12.5 | < 30 | IC50 [1, 4]: 0.24 µM; IC50 [2, 11]: > 12.5 µM
6 | O=S(=O)(NCC1(O)CCOc2ccccc21)c1ccccc1Br (stereo not drawn) [DDD01028076] | >50.0 | > 12.5 | 0.16 | 0.72 | 98.3 | > 10 | > 12.5 | < 30 | IC50 [1, 4]: 0.53 µM; IC50 [2, 11]: > 12.5 µM
7 | COc1cccc(-n2ccc3nc(N4CCCC4)ncc3c2=O)c1 [DDD01034957] | >50.0 | > 12.5 | – | > 12.5 | – | – | > 12.5 | – | –
8 | O=S(=O)(NCC1(O)CCOc2ccccc21)c1cccs1 (stereo not drawn) [DDD01035879] | >50.0 | > 12.5 | 1.1 | 1.65 | 83.8 | > 10 | > 12.5 | < 30 | IC50 [1, 4]: 0.28 µM; IC50 [2, 11]: > 12.5 µM
9 | O=S(=O)(NCC1(O)CCOc2ccccc21)c1ccc(Br)s1 (stereo not drawn) [DDD01035881] | >50.0 | > 12.5 | 0.54 | 0.7 | 102 | > 10 | > 12.5 | < 30 | IC50 [1, 4]: 0.19 µM; IC50 [2, 11]: > 12.5 µM
10 | Cc1cccc(NC(=O)c2cccc(OCc3nnnn3C)c2)n1 [DDD01038630] | >50.0 | > 12.5 | – | > 12.5 | – | – | > 12.5 | – | –
11 | CC(c1ccco1)N(C(=O)CNc1ccc(C#N)cc1)C1CC1 (stereo not drawn) [DDD01062645] | >50.0 | > 12.5 | 0.43 | 2.07 | 96 | > 10 | > 12.5 | < 30 | –
12 | Cc1ccc(CN(c2cc(C)nc3nc(C(F)(F)F)nn23)C2CC2)cc1 [DDD01063654] | >50.0 | > 12.5 | – | > 12.5 | – | – | > 12.5 | – | –
13 | Cc1cc(C)c(CNCC(O)c2ccc(F)c(F)c2)c(C)c1.Cl (stereo not drawn) [DDD01065539] | – | > 12.5 | – | > 12.5 | – | – | > 12.5 | – | Human HepG2 assay TOX50 (HepG2 cells; 48h incubation): 36.6 µM
14 | CC(NCC1CCN(CCO)CC1)c1ccc(OC(F)(F)F)cc1 (stereo not drawn) [DDD01073716] | >50.0 | > 12.5 | 7.09 | 1.43 | 43.9 | > 10 | 4.12 | < 30 | –
15 | CN(Cc1cccc(F)c1)C(=O)CS(=O)(=O)Cc1c(Cl)cccc1Cl [DDD01077188] | >50.0 | > 12.5 | – | > 12.5 | – | – | > 12.5 | – | –
16 | CN1CCC(NCC(O)c2cccc(OCc3ccccc3)c2)CC1 (stereo not drawn) [DDD01079164] | 38.40 | > 12.5 | 5.75 | 0.92 | 45.7 | > 10 | 3.12 | < 30 | –
17 | CNc1cc(C)nc(NC2CCCN(C3Cc4ccccc4C3)C2)n1 (stereo not drawn) [DDD01243506] | >50.0 | > 12.5 | – | > 12.5 | – | – | > 12.5 | – | HepG2 TOX50 (HepG2 cells; human, 48 h): ≥ 50 µM
18 | OC1(CN2CCC(Oc3cccc(C(F)(F)F)c3)CC2)CCNC1 (stereo not drawn) [DDD01245291] | 21.70 | > 25 | 3.05 | 1.11 | 48.3 | 5.78 | 4.13 | < 30 | –
19 | CC(c1cccs1)N(C)Cc1cnc(-c2ccccn2)nc1 (stereo not drawn) [DDD01246628] | 11.30 | > 25 | 2.54 | 1.17 | 67.8 | 5.32 | > 25 | 41.9 | –
20 | CC(C)CN1CCn2nc(CNc3ncnc4[nH]ccc34)cc2C1 [DDD01249504] | >50.0 | > 25 | 2.27 | 1.66 | 52.1 | > 10 | > 25 | < 30 | IC50 ([1]; 240 h, resynthesized, aged 10 days at room temperature in the light, read-out: IC50 in Pf DGFA after aging): 0.381 µM; activity in the Pf DGFA [1]: inactive; activity in Pf DGFA after aging ([1]; resynthesized, incubated in the dark at 37 °C): inactive; activity in Pf DGFA ([1]; resynthesized, untreated compound): inactive
21 | CCCn1nccc1C(=O)N1CCN(C2CCc3ccccc3C2)CC1 (stereo not drawn) [DDD01251134] | >50.0 | > 12.5 | – | > 12.5 | – | – | > 12.5 | – | –
22 | Cc1nn(C)c(Oc2ccc(Cl)cc2)c1CN1CCC(CN)C1 (stereo not drawn) [DDD01254274] | >50.0 | > 25 | 4.08 | 2.25 | 53.1 | > 10 | > 25 | < 30 | –
23 | CCc1ccc(C2c3nc[nH]c3CCN2Cc2nccn2CC)nc1 (stereo not drawn) [DDD01254473] | >50.0 | > 25 | > 10 | 3.96 | < 30 | 2.79 | 0.167 | 30.5 | –
24 | CCOc1ccc2ccccc2c1CNCC1CCNCC1.Cl.Cl [DDD01255740] | >50.0 | > 25 | 4.4 | 0.41 | 35.6 | > 10 | 1.88 | < 30 | –
25 | Cc1ccc(-c2cc(C(=O)NCCC3=CCCCC3)[nH]n2)o1 [DDD01255968] | >50.0 | > 12.5 | 1.55 | 1.82 | 37.5 | > 10 | > 12.5 | < 30 | IC50 ([1]; resynthesized, incubated at room temperature, read-out: IC50 in Pf DGFA after aging): 15.9 µM; IC50 ([1]; resynthesized, prolonged incubation at 37 °C, read-out: IC50 in Pf DGFA after aging): 5.85 µM; activity in the Pf DGFA [1]: inactive
26 | CCn1ncc(Br)c1CN(C)S(=O)(=O)c1ccc(C)cc1 [DDD01259521] | >50.0 | > 12.5 | – | > 12.5 | – | – | > 12.5 | – | –
27 | c1cnnc(N2CCCC2CNc2ncnc3sccc23)c1 (stereo not drawn) [DDD01299704] | >50.0 | > 12.5 | – | > 12.5 | – | – | > 12.5 | – | –
